# Measurements from patent US20260271928A1, “CONTROL OF PESTS RESISTANT TO INSECTICIDES” (Syngenta Crop Protection Ag, priority 2023, published 2026).
# Like-named read-outs stand apart in the source and are kept apart here.
# Key:
# [1] = biological target: T1, vesicular acetylcholine transporter (VAChT) (Lucilia sericata, UniProt Z9IC98WFD0); assay: [3H]-A1 radioligand binding and competitive displacement, Lucilia sericata head membrane
# T1 sequence (Z9IC98WFD0 1-593): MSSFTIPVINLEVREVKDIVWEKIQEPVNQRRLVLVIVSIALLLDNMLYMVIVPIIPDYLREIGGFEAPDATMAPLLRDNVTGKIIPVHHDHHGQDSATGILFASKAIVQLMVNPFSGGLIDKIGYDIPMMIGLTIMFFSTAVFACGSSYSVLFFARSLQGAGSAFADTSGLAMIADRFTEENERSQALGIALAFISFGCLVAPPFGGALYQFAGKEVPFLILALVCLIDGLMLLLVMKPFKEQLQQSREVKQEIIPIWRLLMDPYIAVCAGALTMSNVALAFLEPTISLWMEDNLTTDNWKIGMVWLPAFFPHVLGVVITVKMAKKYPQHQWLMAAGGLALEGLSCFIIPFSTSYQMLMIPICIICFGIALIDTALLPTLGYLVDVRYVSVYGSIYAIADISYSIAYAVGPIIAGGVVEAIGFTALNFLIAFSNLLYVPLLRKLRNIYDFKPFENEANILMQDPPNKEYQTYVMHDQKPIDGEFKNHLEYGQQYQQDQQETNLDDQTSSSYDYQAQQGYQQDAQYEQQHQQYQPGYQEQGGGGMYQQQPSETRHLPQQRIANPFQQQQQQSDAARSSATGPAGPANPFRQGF
# Description: Methods herein were generally adapted from this publication.
# Binding of [^3H]-A1 was measured using Lucilia sericata head membrane suspended in 50 mM Tris HCL buffer (pH7.4) containing 120 mM NaCl, and 100 mM EDTA, at a protein concentration of 1 mg/ml for dispensing into 96 well plates to give 50 μg protein per well. [^3H]-A1 was added to plates as a 37 MBq/ml ethanol stock dissolved in 2.2 ml assay buffer to give an approximate final well concentration of 9 nM. Test compounds were incubated at 25° C. for 90 min with 9 nM [^3H]-A1 (or a range of concentrations for saturation analysis) at either 8 rates (where prepared manually) or 6 or 10 rates where prepared using robotics. The binding incubation was terminated by vacuum filtration through glass fibre filter mats (PerkinElmerFilterMat A, Seer Green, UK), pre-treated with 0.5% polyethyleneimine and mounted on a Tomtec cell harvester. The filters were then washed rapidly with ice-cold water, dried and bound radioactivity measured using an EG&GWallac betaplate scintillation counter after impregnating the filter with solid scintillant (PerkinElmer MeltiLex). Non specific binding was subtracted from the counts at each data point to give the specific binding. The amount of displacement was calculated as a % of the control and the IC50 calculated from a curve fitted using a single-exponential algorithm.
# Data was fitted with a single-exponential model.
# To identify the insecticidal target-protein for alkylysulfones we examined the ability of a range of ligands with identified target proteins to displace [^3H]-A1 from its site on Lucilia membranes (see Table X3).
# [2] = tested on: Resistant Nilaparvata lugens; assay: Resistant Nilaparvata lugens (rNIL); type: in vivo; conditions: collected 2005, Karnataka, India
# Description: Rice plants were treated with the diluted test solutions in a spray chamber. After drying, plants were infested with ~20 Nilaparvata lugens nymphs (N5). 7 days after the treatment samples were assessed for mortality. The adults were then removed and 15 days after the treatment samples were assessed for effect on F1 generation.
# Resistant Nilaparvata lugens (rNIL)
# Originally collected from Hosa-Hally, Karnataka district, India in 2005.
# [3] = tested on: Resistant Plutella xylostella; assay: Resistant Plutella xylostella (rPLU); type: in vivo; conditions: for resistance of the rPLU strain to the insecticide: collected 2013, Changhua, Taiwan
# Description: (§1) Chinese cabbage plants were treated with the diluted test solutions in a spray chamber. After drying, the leaves were cut off and placed in petri dishes with wetted filter paper. One day after treatment, the leaves were infested with 10 Plutella xylostella larvae (L3). Samples were assessed 4 days after infestation for mortality and growth regulation.
# Resistant Plutella xylostella (rPLU)
# A number of target-sites mutations were identified in this strain which confer resistance to pyrethroids (L1014F, T929I), organophosphates and carbamates (mAChE: A298S and G324A), and organochlorines (rdl: A298S), and diamides (ryr: G4546E).
# [4] = tested on: Resistant Bemisia tabaci; assay: Resistant Bemisia tabaci (rBT); type: in vivo; conditions: biotype Q, field-collected 2000, Almeria, Spain
# Description: Cotton leaf discs were placed upside down in petri dishes on water agar and treated with the diluted test solutions in a spray chamber. After drying, leaf discs were infested with 10 adult Bemisia tabaci. Dishes were covered with a fabric filter and sealed with a perforated plastic lid. 4 days after treatment samples were assessed for mortality.
# Resistant Bemisia tabaci (rBT)
# Biotype Q originally field-collected in 2000 from Almeria, Spain. […] The strain carried the mutation L925I in the voltage-gated sodium channel conferring resistance to pyrethroids. It also had higher expression of the p450 CYP6CM1 conferring metabolic resistance to neonicotinoids.
# [5] = tested on: Resistant Myzus persicae; assay: Resistant Myzus persicae (rMP); type: in vivo; conditions: field-collected 2009, Southern France
# Description: Pepper plants were infested with an Myzus persicae population of mixed ages. One day after infestation the plants were treated with the diluted test solutions in a spray chamber. 5 days after treatment samples were assessed for mortality.
# [6] = tested on: Plutella xylostella; assay: Plutella xylostella (diamond back moth), larvae, feeding/contact (sPLU); type: in vivo; conditions: sensitive strain, L3 larvae on Chinese cabbage, assessed 4 days after infestation; 0 = BP80 >200 ppm
# Description: as §1, with “Plutella xylostella (Diamond Back Moth), Larvae, Feeding/Contact (sPLU) Chinese” for “Chinese”
# [7] = Lucilia membranes, ligands with identified target proteins, read-out: [3H]-A1 displacement IC50
# [8] = Lucilia sericata head membrane, 9 nM [3H]-A1, read-out: IC50 Displacement Values of [3H]-A1
# [9] = Lucilia membranes, ligands with identified target proteins
# [10] = Lucilia head membrane, 9 nM [3H]-A1, read-out: Affinity at the [3H]-A1 binding site, competitive displacement
molecule,measurement,setting,value
CC(C)=CC1C(C(=O)OCN2C(=O)C3=C(CCCC3)C2=O)C1(C)C (centres unmarked) [Tetramethrin],IC50,[1]; [7],17.4 µM
CC[S@](=N)(=O)c1cc(OC(C)(C)C#N)cnc1-c1nc2cc(C(F)(F)F)cnc2n1C [VAChT-27],IC50,[1]; [8],0.025 µM
CCS(=N)(=O)c1cc(C2(C#N)CC2)cnc1-c1nc2cc(C(F)(F)F)nnc2n1C (centres unmarked) [VAChT-35],IC50,[1]; [8],0.079 µM
Spinosad,IC50,[1]; [7],> 13.7 µM
CN/C(=N/CC1CCOC1)N[N+](=O)[O-] (centres unmarked) [Dinotofuran],IC50,[1]; read-out: [3H]-A1 displacement IC50,> 49.5 µM
O=[N+]([O-])NC1=NCCN1Cc1ccc(Cl)nc1 [Imidacloprid],IC50,[1]; [7],> 19.8 µM
Cc1ccc(/N=C/N(C)/C=N/c2ccc(C)cc2C)c(C)c1 [Amitraz],[3H]-A1 displacement IC50,[1]; [9],Inactive or IC50>
CC[S@@](=N)(=O)c1cc(C2(C#N)CC2)cnc1-c1nc2cc(C(F)(F)F)ncc2n1C [VAChT-34],IC50,[1]; [8],0.04 µM
CCS(=O)(=O)c1cc(C(F)(F)F)cnc1-c1nnc(-c2cc(C(F)(F)F)ccn2)n1C [C1],IC50,[1]; [10],0.0063 µM
CCS(=O)(=O)c1cc(C(F)(F)F)cnc1-c1nc2cc(C(F)(F)F)cnc2n1C [A3],IC50,[1]; [10],0.01 µM
CN/C(=N\[N+](=O)[O-])NCc1cnc(Cl)s1 [clothianidin],resistance of the rNIL strain to the insecticide,[2],200 fold
Cc1cc(C(F)(C(F)(F)F)C(F)(F)F)ccc1NC(=O)c1cccc(I)c1C(=O)NC(C)(C)CS(C)(=O)=O [flubendiamide],resistance of the rPLU strain to the insecticide,[3],300 fold
Nc1cccc2c1CC(N1CCC(c3ccccc3)CC1)C(O)C2 (centres unmarked) [Aminobenzovesamicol],IC50,[1]; [7],0.0176 µM
CC1(C)[C@H](C(=O)O[C@H](C#N)c2cccc(Oc3ccccc3)c2)[C@@H]1/C=C(\Cl)C(F)(F)F (racemic) [Lambda-cyhalothrin],resistance of the rBT population to the insecticide,[4],40 fold
same,resistance of the rPLU strain to the insecticide,[3],> 800 fold
same,resistance of the rMP population to the insecticide,[5],> 5000 fold
CCS(=O)(=O)c1cccnc1-c1nc2cc(S(=O)(=O)C(F)(F)F)ccc2o1 [VAChT-13],IC50,[1]; [8],0.002 µM
COC(=O)N(C(=O)N1CO[C@@]2(C(=O)OC)Cc3cc(Cl)ccc3C2=N1)c1ccc(OC(F)(F)F)cc1 [Indoxacarb],IC50,[1]; [7],> 19 µM
ClC1=C(Cl)[C@]2(Cl)[C@@H]3[C@@H]4C[C@@H]([C@H]5O[C@@H]45)[C@@H]3[C@@]1(Cl)C2(Cl)Cl [Dieldrin],IC50,[1]; [7],> 26.5 µM
"CCS(=O)(=O)c1c(N2Cc3ncc(C(F)(F)F)cc3C2=O)nc(-c2ccc(C3(C#N)CC3)cc2)n1C [P77, 1-[4-[5-ethyl-sulfonyl-1-methyl-4-[5-oxo-3-(trifluoromethyl)-7H-pyrrolo[3,4-b]pyridin-6-yl]imidazol-2-yl]phenyl]cyclopro-panecarbonitrile]",pBP80 s-PLU,[6],5.8
same,pBP80 r-PLU,"[3]; resistant strain, L3 larvae on Chinese cabbage, assessed 4 days after infestation, 0 = BP80 >200 ppm",5.8
CNC(=O)O/N=C/C(C)(C)SC [Aldicarb],IC50,[1]; [7],> 52.6 µM
CNC(=O)c1cc(C#N)cc(C)c1NC(=O)c1cc(Br)nn1-c1ncccc1Cl [Cyantraniliprole],IC50,[1]; [7],> 21.2 µM
Cc1cc(Cl)ccc1N=CN(C)C [Chlordimeform],[3H]-A1 displacement IC50,[1]; [9],Inactive or IC50>
CCS(=O)(=O)c1ccc(-n2cncn2)nc1-c1nc2cc(C(F)(F)F)cnc2n1C [VAChT-16],IC50,[1]; [8],0.01 µM
CCCCCC[C@H]1C(=O)O[C@H](C)[C@H](NC(=O)c2cccc(NC=O)c2O)C(=O)O[C@@H](C)[C@@H]1OC(=O)CC(C)C [Antimycin A1],IC50,[1]; [7],> 18.2 µM
CCS(=O)(=O)c1cc(C2(C#N)CC2)cnc1-c1nc2cc3c(cc2n1C)OC(F)(F)O3 [VAChT-20],IC50,[1]; [8],0.004 µM
CN1COCN(Cc2cnc(Cl)s2)/C1=N\[N+](=O)[O-] [Thiamethoxam],resistance of the rNIL strain to the insecticide,[2],200 fold
CCS(=O)(=O)c1cc(C2(C#N)CC2)cnc1-c1nc2cc(C(F)(F)F)cnc2n1C [VAChT-7],IC50,[1]; [8],0.008 µM
CCS(=O)(=O)c1c(-c2nc3cc(C(F)(F)F)cnc3n2C)nc2ccc(C(F)(F)F)cn12 [VAChT-19],IC50,[1]; [8],0.002 µM
COC1CCC2(CC1)NC(=O)C(c1cc(C)ccc1C)=C2O (centres unmarked) [Spirotetramat enol],IC50,[1]; [7],> 33.2 µM
N#Cc1nn(-c2c(Cl)cc(C(F)(F)F)cc2Cl)c(N)c1[S+]([O-])C(F)(F)F (centres unmarked) [Fipronil],IC50,[1]; [7],> 22.9 µM
O=C(c1ccnc(Cl)c1)N1CC2(CCN(C/C=C/c3ccc(Cl)cc3)CC2)c2cc(F)ccc21 [5-F-CASPP],IC50,[1]; [7],0.0023 µM
ClC1=C(Cl)C2(Cl)C3C4CC(C5OC45)C3C1(Cl)C2(Cl)Cl (centres unmarked) [Endrin],IC50,[1]; [7],> 26.5 µM
Emamectin Benzoate,IC50,[1]; [7],11.3 µM
COC(=O)C12Cc3cc(Cl)ccc3C1=NN(C(=O)Nc1ccc(OC(F)(F)F)cc1)CO2 (centres unmarked) [DCJW],IC50,[1]; [7],> 21.3 µM
CCS(=O)(=O)c1cc(C(F)(F)F)cnc1-c1nc2cc(C(F)(F)F)ncc2n1C [A2],IC50,[1]; [10],0.039 µM
CCOP(=S)(OCC)Oc1nc(Cl)c(Cl)cc1Cl [chlorpyrifos],resistance of the rPLU strain to the insecticide,[3],100 fold
CCS(=O)(=O)c1cccnc1-c1nc2cc(S(=O)(=O)C(F)(F)F)ccc2o1 [B1],IC50,"[1]; read-out: Affinity at the [3H]-A1 binding site, competitive displacement, Lucilia head membrane, 9 nM [3H]-A1",0.002 µM
CCc1ccc(C(=O)NN(C(=O)c2cc(C)cc(C)c2)C(C)(C)C)cc1 [Tebufenozide],IC50,[1]; [7],> 28.4 µM
CCS(=N)(=O)c1cc(C(F)(F)F)cnc1-c1nc2cc(C(F)(F)F)cnc2n1C (centres unmarked) [VAChT-1],IC50,[1]; [8],0.1 µM
CC(C)(C)N(NC(=O)c1ccc(Cl)cc1)C(=O)c1ccccc1 [Halofenozide],IC50,[1]; [7],> 30.3 µM
abamectin,resistance of the rPLU strain to the insecticide,[3],> 200 fold
CCN(CC)c1nc(C)cc(OP(=S)(OC)OC)n1 [Pirimiphos-methyl],IC50,[1]; [7],> 32.8 µM
CNC(=O)c1cc(Cl)cc(C)c1NC(=O)c1cc(Br)nn1-c1ncccc1Cl [Chlorantraniliprole],IC50,[1]; [7],> 20.8 µM
CC(C)C(C(=O)OC(C#N)c1cccc(Oc2ccccc2)c1)c1ccc(Cl)cc1 (centres unmarked) [Fenvalerate],IC50,[1]; [7],> 23.9 µM
CCN(Cc1ccc(Cl)nc1)/C(=C/[N+](=O)[O-])NC [nitenpyram],resistance of the rNIL strain to the insecticide,[2],30 fold
